# Experimental data reported in PMC8815882, “Screening the pandemic response box identified benzimidazole carbamates, Olorofim and ravuconazole as promising drug candidates for the treatment of eumycetoma” (PLoS Neglected Tropical Diseases, 2022).
# Read-outs that look alike come from different tables or passages of the source.
# Tested on: M. mycetomatis genome strain MM55
# Test: CLSI M38-A2 based in vitro susceptibility screening (XTT or resazurin), growth at fixed concentration
# Assay type: cell-based, Madurella mycetomatis
# Conditions: Madurella mycetomatis; for Percent fungal survival at 100 µM: read-out: Percentage survival at 100um, 100 uM A (second replicate column)
# [1] = mean of replicates, read-out: Percentage survival at 25um, 25 uM mean
# [2] = replicate A, read-out: Percentage survival at 25um, 25 um A
# [3] = replicate B, read-out: Percentage survival at 25um, 25 uM B
# [4] = replicate C, read-out: Percentage survival at 25um, 25 uM C
# [5] = mean of replicates, read-out: Percentage survival at 100um, 100 uM mean
# [6] = replicate 1, read-out: Percentage survival at 100um, 100 uM A
# [7] = replicate 2, read-out: Percentage survival at 100um, 100 uM A
# [8] = replicate 3, read-out: Percentage survival at 100um, 100 uM A
# [9] = mean of three, M. mycetomatis MM55, read-out: Percentage survival at 25um, 25 uM mean
# [10] = replicate A, M. mycetomatis MM55, read-out: Percentage survival at 25um, 25 um A
# [11] = replicate B, M. mycetomatis MM55, read-out: Percentage survival at 25um, 25 uM B
# [12] = replicate C, M. mycetomatis MM55, read-out: Percentage survival at 25um, 25 uM C
# [13] = mean of three, M. mycetomatis MM55, read-out: Percentage survival at 100um, 100 uM mean
# [14] = replicate 1, M. mycetomatis MM55, read-out: Percentage survival at 100um, 100 uM A (first replicate column)
# [15] = replicate 2, M. mycetomatis MM55
# [16] = replicate 3, M. mycetomatis MM55, read-out: Percentage survival at 100um, 100 uM A (third replicate column)
# [17] = mean, read-out: Percentage survival at 25um, 25 uM mean
# [18] = mean, read-out: Percentage survival at 100um, 100 uM mean
# [19] = replicate (first column), read-out: Percentage survival at 100um, 100 uM A
# [20] = replicate (second column), read-out: Percentage survival at 100um, 100 uM A
# [21] = replicate (third column), read-out: Percentage survival at 100um, 100 uM A
# [22] = mean of replicates, MM55, read-out: Percentage survival at 25um, 25 uM mean
# [23] = replicate A, MM55, read-out: Percentage survival at 25um, 25 um A
# [24] = replicate B, MM55, read-out: Percentage survival at 25um, 25 uM B
# [25] = replicate C, MM55, read-out: Percentage survival at 25um, 25 uM C
# [26] = mean of replicates, MM55, read-out: Percentage survival at 100um, 100 uM mean
# [27] = replicate 1, MM55, read-out: Percentage survival at 100um, 100 uM A
# [28] = replicate 2, MM55, read-out: Percentage survival at 100um, 100 uM A
# [29] = replicate 3, MM55, read-out: Percentage survival at 100um, 100 uM A
# [30] = mean of three replicates, read-out: Percentage survival at 25um, 25 uM mean
# [31] = mean of three replicates, read-out: Percentage survival at 100um, 100 uM mean
# [32] = replicate 1, read-out: Percentage survival at 100um, 100 uM A (first replicate column)
# [33] = replicate 3, read-out: Percentage survival at 100um, 100 uM A (third replicate column)
Compound,activity at 25 µM [2],activity at 25 µM [3],activity at 25 µM [4],activity at 25 µM [9],activity at 25 µM [10],activity at 25 µM [11],activity at 25 µM [12],activity at 100 µM [13],activity at 100 µM [14],Percent fungal survival at 100 µM [15],activity at 100 µM [16],further results
Nc1nc(NC2Cc3ccc(F)cc3C2)nc(N2CCCCC2)n1 (stereo not drawn) [MMV1580839],58.8%,53.9%,9.06%,,,,,,,,,activity at 25 µM [1]: 40.6%; activity at 100 µM [5]: 1.55%; activity at 100 µM [6]: -0.246%; activity at 100 µM [7]: 0.453%; activity at 100 µM [8]: 4.45%
O=C(Nc1ccc(Cl)c(C(F)(F)F)c1)C(CCCl)C(=O)Nc1ccc(Cl)c(C(F)(F)F)c1 [MMV1580840],,,,56.9%,58.8%,55.1%,56.9%,36.8%,0.352%,58.3%,51.8%,
O=S(=O)(NCB(O)O)c1cc2c(Cl)ccc(Cl)c2s1 [MMV1580841],79.1%,74.7%,54.3%,,,,,,,,,activity at 25 µM [17]: 69.4%; activity at 100 µM [18]: 70.2%; activity at 100 µM [19]: 88.2%; activity at 100 µM [20]: 69.4%; activity at 100 µM [21]: 53%
Clc1cc2nc(C3CCNCC3)n(Cc3ccc(CNCCc4cnc[nH]4)cc3)c2cc1Cl [MMV1580842],,,,86.1%,92.3%,94.9%,71.1%,66.3%,60.7%,74.3%,64.1%,
C[Si]1(C)CCN(Cc2cc(-c3ccc(Cl)cc3)n(-c3ccc(Cl)cc3)n2)CC1 [MMV1580843],,,,,,,,,,,,activity at 25 µM [22]: 67.7%; activity at 25 µM [23]: 56.5%; activity at 25 µM [24]: 86.3%; activity at 25 µM [25]: 60.2%; activity at 100 µM [26]: 57.4%; activity at 100 µM [27]: 52%; activity at 100 µM [28]: 70.7%; activity at 100 µM [29]: 49.4%
CCc1nc(N)nc(N)c1C#CC(C)c1cc(OC)cc(-c2ccncc2)c1 (stereo not drawn) [MMV1580844],,,,31.6%,86.9%,5.16%,2.83%,-1.56%,-1.7%,-1.01%,-1.98%,
CC(=O)N[C@H](C)C(=O)N[C@H](Cc1ccccc1)C(=O)O [MMV1580845],86.4%,86.8%,90.5%,,,,,,,,,activity at 25 µM [30]: 87.9%; activity at 100 µM [31]: 86.9%; activity at 100 µM [32]: 88.3%; Percent fungal survival at 100 µM (replicate 2): 84.1%; activity at 100 µM [33]: 88.3%
COc1ccc(SC(=O)N[C@H](CCC(=O)O)C(=O)O)cc1 [MMV1580846],78.8%,91.4%,84.8%,,,,,,,,,activity at 25 µM [1]: 85%; activity at 100 µM [5]: 45.7%; activity at 100 µM [6]: -2.83%; activity at 100 µM [7]: 55.8%; activity at 100 µM [8]: 84.3%
CCCCCc1ccc(C(=O)NCCn2cc(CCCCCc3cnc(N)[nH]3)nn2)cc1 [MMV1580847],58%,61.7%,70%,,,,,,,,,activity at 25 µM [30]: 63.2%; activity at 100 µM [31]: 64.8%; activity at 100 µM [32]: 67%; Percent fungal survival at 100 µM (replicate 2): 95.2%; activity at 100 µM [33]: 32.1%
NC(=O)c1cnc2ccc(S(=O)(=O)c3ccccc3)cc2c1Nc1ccc(O)cc1 [MMV1580848],,,,78.8%,86.9%,78.3%,71.3%,83.2%,89.3%,86.1%,74.3%,
C=CCc1cc(Cc2cnc(N)nc2N)cc(OC)c1O [MMV1580849],100%,95.7%,93.6%,,,,,,,,,activity at 25 µM [1]: 96.4%; activity at 100 µM [5]: 91.3%; activity at 100 µM [6]: 101%; activity at 100 µM [7]: 86.2%; activity at 100 µM [8]: 86.7%
Fc1ccc(-n2cc(Cn3c(-c4cccc(F)c4)nc4ccccc43)nn2)cc1 [MMV1580850],,,,60.8%,55.7%,55.1%,71.7%,85.9%,71.4%,60.3%,126%,
CCCCCOc1ccc(/C=C2\Oc3c(ccc(O)c3O)C2=O)c(O)c1 [MMV1580851],,,,102%,93.6%,82.3%,129%,90%,82.6%,98.4%,89%,
CCCCc1ccc(-c2cc(C(=O)O)cc(-c3ccc(Cl)cc3)n2)cc1 [MMV1580852],3.56%,69.1%,28.7%,,,,,,,,,activity at 25 µM [30]: 33.8%; activity at 100 µM [31]: 4.07%; activity at 100 µM [32]: 5.06%; Percent fungal survival at 100 µM (replicate 2): -0.471%; activity at 100 µM [33]: 7.62%
O=C(Nc1cccc(C2=NCCN2)c1)c1ccc(-c2ccc(C(=O)Nc3cccc(C4=NCCN4)c3)cc2)cc1 [MMV1580853],92.1%,94.2%,67.1%,,,,,,,,,activity at 25 µM [17]: 84.5%; activity at 100 µM [18]: 55.8%; activity at 100 µM [19]: 6.17%; activity at 100 µM [20]: 92%; activity at 100 µM [21]: 69.2%
CCc1cc(O)c(Oc2cccnc2N)cc1F [MMV1580854],,,,86.4%,97.5%,88.8%,72.9%,101%,78.2%,91.9%,132%,
O=C(O)c1sccc1S(=O)(=O)n1ccc2cc(Br)ccc21 [MMV1580855],101%,108%,88.3%,,,,,,,,,activity at 25 µM [30]: 98.9%; activity at 100 µM [31]: 97.9%; activity at 100 µM [32]: 128%; Percent fungal survival at 100 µM (replicate 2): 86.2%; activity at 100 µM [33]: 79.1%
Cc1ccccc1NC(=O)Nc1cccc([N+](=O)[O-])c1 [MMV1581029],95.8%,97.7%,74%,,,,,,,,,"activity at 25 µM [30]: 89.2%; activity at 100 µM (first replicate column, read-out: Percentage survival at 100um, 100 uM A): 95.6%; activity at 100 µM [31]: 92.5%; activity at 100 µM (second replicate column, read-out: Percentage survival at 100um, 100 uM A): 104%; activity at 100 µM (third replicate column, read-out: Percentage survival at 100um, 100 uM A): 77.8%"
CN(C(=O)C1(c2ccc(Cl)cc2)CCC1)c1ccccc1 [MMV1581030],,,,,,,,,,,,activity at 25 µM [22]: 63.9%; activity at 25 µM [23]: 61.1%; activity at 25 µM [24]: 107%; activity at 25 µM [25]: 23.2%; activity at 100 µM [26]: 9.02%; activity at 100 µM [27]: 16%; activity at 100 µM [28]: 1.46%; activity at 100 µM [29]: 9.58%
N[C@H](CCC(=O)N[C@@H](Cc1c[nH]c2ccccc12)C(=O)O)C(=O)O [MMV1581033],,,,,,,,,,,,activity at 25 µM [22]: 91%; activity at 25 µM [23]: 91.2%; activity at 25 µM [24]: 94.6%; activity at 25 µM [25]: 87.2%; activity at 100 µM [26]: 66.8%; activity at 100 µM [27]: 84.1%; activity at 100 µM [28]: 28.6%; activity at 100 µM [29]: 87.7%
Cc1c(F)cccc1NC(=O)Nc1ccc(Cl)c(S(=O)(=O)[C@H]2CCCNC2)c1O [MMV1581034],,,,,,,,,,,,activity at 25 µM [22]: 83.9%; activity at 25 µM [23]: 82%; activity at 25 µM [24]: 88.9%; activity at 25 µM [25]: 80.7%; activity at 100 µM [26]: 77.6%; activity at 100 µM [27]: 82.8%; activity at 100 µM [28]: 73.6%; activity at 100 µM [29]: 76.3%
